Results on eleven compounds are retold here after paper PMC9025269, “Synthesis and Anti-Hepatitis B Activities of 3′-Fluoro-2′-Substituted Apionucleosides” (Molecules, 2022).

Data set [1] has as its system VSV-G pseudotyped HIV NL4-3. Kind of data set: microbe, parasite or virus in culture. Format: cell-based. Particulars: for EC50: Human immunodeficiency virus 1, NL43, CCRF-CEM, 72 h, read-out: HIV EC50.
Data set [2] can be described thus: in vitro. Particulars: human.
Data set [3] concerns HBV. Kind of data set: HBV replication assay with HepG2.117 cells (qPCR of HBV DNA in supernatant). Particulars: for EC50: Hepatitis B virus, HepG2.117 cells, 96 h, mean ± SD (n); for anti-HBV activity: cell-based assay. The class given is cell-based, Hepatitis B virus.
The nature of data set [4]: Cell cytotoxicity against HepG2 cells (CellTiter-Glo, 96 h). The class given is cell-based, human. Particulars: human. The procedure: (§1) In parallel, cell cytotoxicity (CC50) against HepG2 cells was measured using a luminescent cell viability assay to determine the number of viable cells in the culture based on quantitation of the adenosine triphosphate (ATP) present after a 4-day incubation period. On the first day, HepG2 cells were seeded at 15,000 cells per 100 µL per well with assay media containing DEME (Corning, cat#10-013-CV), 3% FBS (Coning, cat#35-011-CV), 1× penicillin/streptomycin and 1× Non-essential Amino Acid in Biocoat collagen-coated 96-well flat bottom plates. Cells were incubated in a 37 °C, 5% CO2 incubator for 4 h before compound dosing. The compound dilution and dosing procedure were identical to that for the determination of anti-HBV activity. After 96 h incubation, CellTiter-Glo® reagent (Promega, Madison, WI, USA) was added to each well and incubated for 10 min at RT. Luminescence was measured on a Victor X3 multi-label plate reader. Cell viability is normalized to the level observed in the absence of an inhibitor, which was defined as 100%.

Data set [5] has as its system HepG2 cells. The data set is described as above. The class given is cell-based, human. Particulars: at highest tested concentrations; HepG2 and CEM cells (Table 1). As for the experimental part:
as §1

The target in data set [6] is T1, HIV-1 reverse transcriptase (HIV-1 RT) (Human immunodeficiency virus type 1 group M subtype B, UniProt P03366).
T1 construct: HIV-1 reverse transcriptase (HIV-1 RT) was purchased from Abcam (cat#ab63979); purchased Abcam ab63979
The data set can be described thus: HIV-1 reverse transcriptase RdDp activity assay. Format: biochemical. An excerpt:
(§2) HIV-1 reverse transcriptase (HIV-1 RT) was purchased from Abcam (cat#ab63979). Recombinant HBV polymerase (Hepatitis B virus genotype D subtype ayw, full length) was cloned using the baculovirus system, expressed in sf9 cells, and purified with similar strategy and methods described by Lanford et al.. A DNA primer (5′-[…]-3′) was synthesized by IDTDNA and a 358-nt RNA template was synthesized in-house using Megascript T7 transcription kit (ThermoFisher, cat#AM1334). dNTPs were purchased from Thermo Fisher and ^3H-dTTP from Perkin Elmer. Filter plates were purchased from Millipore (cat#MABN0V050) and microscint-20 was purchased from Perkin Elmer (cat#6013621).
The RNA-dependent DNA polymerization (RdDp) activity of HIV-1 RT was measured by the incorporation of radioactively labeled nucleotides by HIV-1 RT into acid-insoluble DNA products from the DNA primer primed RNA template. To test compound inhibition, the reactions were performed at 30 °C for 40 min in a reaction mixture containing reaction buffer (50 mM Tris-Cl, pH 7.5, 100 mM KCl, 12.5 mM MgCl2, 4 mM DTT), 1 nM HIV-1 RT, 0.1 µM DNA primer, 0.02 µM RNA template, 10% DMSO, 0.1 µM dATP, 1 µM dGTP, 0.1 µM dCTP, 0.32 µM ^3H-dTTP, and compounds at various concentrations. The 50 µL reactions were performed in 96-well plates. The reactions were quenched with a 60 µL cold mixture of 20% (w/v) TCA and 0.5 mM ATP and incubated at 4 °C for 1 h. The reactions were loaded onto 96-well filter plates. The filters on plates were washed three times with 10% TCA and once with 70% ethanol on a Millipore plate wash station with vacuum applied. The filters on the plate were air-dried and 40 μL Microscint-20 was added to each well. The acid-precipitated tritiated DNA products retained on the filters were detected by a Trilux MicroBeta scintillation reader (Perkin Elmer).
All data were analyzed with GraphPad Prism. The compound concentration at which the enzyme-catalyzed rate was reduced by 50% (IC50) was calculated by fitting the data to the equation Y = % Min + (% Max − % Min) / (1 + 10^((logIC50-X)*h)), where Y corresponds to the percent inhibition to the enzyme activity, % Min is the residual inhibition activity without compound, % Max is the maximum inhibition of enzyme activity at saturating compound concentration, and X corresponds to the log of compound concentrations, and h is the hillslope.

For data set [7], the target named is T2, HBV polymerase (Hepatitis B virus genotype D subtype ayw, UniProt P03156).
T2 construct: Recombinant HBV polymerase (Hepatitis B virus genotype D subtype ayw, full length); made in house; host or cells: Sf9 insect cells (baculovirus)
T2 sequence (P03156 whole entry): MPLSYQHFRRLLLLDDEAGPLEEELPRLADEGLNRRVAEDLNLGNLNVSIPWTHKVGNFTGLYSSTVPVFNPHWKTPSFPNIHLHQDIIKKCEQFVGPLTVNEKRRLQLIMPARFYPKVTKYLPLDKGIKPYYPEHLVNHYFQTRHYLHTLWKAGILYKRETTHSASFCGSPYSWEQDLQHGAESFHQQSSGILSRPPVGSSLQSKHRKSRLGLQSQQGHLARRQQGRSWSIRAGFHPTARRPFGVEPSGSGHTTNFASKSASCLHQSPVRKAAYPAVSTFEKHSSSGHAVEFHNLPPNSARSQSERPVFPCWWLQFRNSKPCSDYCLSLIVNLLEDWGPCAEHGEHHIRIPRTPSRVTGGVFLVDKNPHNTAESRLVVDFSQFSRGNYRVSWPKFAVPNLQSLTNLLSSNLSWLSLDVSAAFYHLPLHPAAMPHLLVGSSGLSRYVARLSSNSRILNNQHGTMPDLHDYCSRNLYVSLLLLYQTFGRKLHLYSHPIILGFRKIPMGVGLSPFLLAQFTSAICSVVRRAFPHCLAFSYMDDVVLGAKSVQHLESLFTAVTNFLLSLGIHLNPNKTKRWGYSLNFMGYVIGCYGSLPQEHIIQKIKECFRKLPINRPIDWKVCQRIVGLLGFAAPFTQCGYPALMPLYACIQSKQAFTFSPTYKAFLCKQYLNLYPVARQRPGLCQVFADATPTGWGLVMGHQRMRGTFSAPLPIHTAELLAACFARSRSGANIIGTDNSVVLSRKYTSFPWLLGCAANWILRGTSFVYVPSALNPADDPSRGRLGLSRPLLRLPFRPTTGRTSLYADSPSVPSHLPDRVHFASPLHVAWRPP
Kind of data set: HBV polymerase RdDp activity assay. Particulars: read-out: HBV pol IC50. The class given is biochemical.
Text: as §2
The RdDp activity of HBV polymerase was measured similarly as described for the HIV-1 RT. To test compound inhibition effect, the reactions were performed at 30 °C for 120 min in a reaction mixture containing reaction buffer (50 mM Tris-Cl, pH 7.5, 100 mM KCl, 12.5 mM MgCl2, 4 mM DTT), 15 µg/mL polymerase, 0.5 µM DNA primer, 0.05 µM RNA template, 10% DMSO, 0.046 µM dATP, 0.057 µM dGTP, 0.017 µM dCTP, 0.32 µM ^3H-dTTP, and compounds at various concentrations.
All data were analyzed with GraphPad Prism. […]

Data set [8] has as its system HBV. Particulars: racemic compounds; read-out: EC50 HBV in vitro; cited from earlier work.
Where [9] appears, read: HepG2 cells, 96 h, read-out: HBV CC50.

Read-outs that look alike come from different tables or passages of the source.

For `C=C1[C@H](COP(=O)(N[C@@H](C)C(=O)OC(C)C)Oc2ccccc2)[C@@H](O)C[C@@H]1n1cnc2c(=O)[nH]c(N)nc21` (some centres unmarked) [Compound 1-PD, reference compound], the EC50 in data set [1] was > 20 µM; in data set [3], 0.031 ± 0.02 µM. Besides, the CC50 in data set [2] was > 20 µM. Further, the CC50 at 96 h in data set [4] (setting [9]) was > 10 µM.

Consider `Nc1ncnc2c1ncn2[C@@H]1OC[C@](F)(CO)[C@H]1CO` [Compound 5, ((2R,3S,4R)-2-(6-Amino-9H-purin-9-yl)-4-fluorotetrahydrofuran-3,4-diyl)dimethanol], for which the EC50 in data set [1] is > 33 µM; in data set [3], > 10 µM. For the same compound, the CC50 in data set [2] was > 33 µM. The “anti-HBV activity” value in data set [3] is “did not show any anti-HBV activity”. The CC50 at 96 h in data set [4] is > 10 µM. The “cytotoxicity” value in data set [5] was “None of the tested apionucleosides 4 and 5 or apionucleoside prodrugs 24 and 39 showed any cytotoxicity”.

Compound `Nc1ncnc2c1ncn2[C@@H]1OC[C@](F)(COP(=O)(O)OP(=O)(O)OP(=O)(O)O)[C@H]1O` [Compound 23, ((3S,4S,5R)-5-(6-Amino-9H-purin-9-yl)-3-fluoro-4-hydroxytetrahydrofuran-3-yl)methyl triphosphate] displayed a concentration for half-maximal inhibition (IC50) in data set [6] of 4.2 µM.

`C=C1[C@H](COP(=O)(O)OP(=O)(O)OP(=O)(O)O)[C@@H](O)C[C@@H]1n1cnc2c(=O)[nH]c(N)nc21` [Compound 1-TP, reference compound]: the IC50 in data set [7] is 0.014 ± 0.003 µM; in data set [6], 0.32 µM.

Take `Nc1nc(=O)n([C@H]2C[C@@](F)(CO)CO2)cc1F` (relative stereo) [Compound 2d]: the EC50 in data set [8] is 0.8 µM.

Regarding `CC(C)OC(=O)[C@H](C)NP(=O)(OC[C@@]1(F)CO[C@@H](n2cnc3c(N)ncnc32)[C@@H]1CO)Oc1ccccc1` (stereo partly drawn) [Compound 39, Isopropyl ((((3S,4S,5R)-5-(6-amino-9H-purin-9-yl)-3-fluoro-4-(hydroxymethyl)tetrahydro-furan-3-yl)methoxy)(phenoxy)phosphoryl)-L-alaninate], in data set [1], the “anti-HIV activity” value is given as “showed anti-HIV activity” and the EC50 was 0.3 µM. The CC50 in data set [2] is > 33 µM. For the same compound, in data set [3], the EC50 was found to be 0.0078 ± 0.0035 µM and the “anti-HBV activity” value is reported as “strong inhibition of HBV”. Besides, the CC50 at 96 h in data set [4] (setting [9]) was > 10 µM. Also, the “cytotoxicity” value in data set [5] is “None of the tested apionucleosides 4 and 5 or apionucleoside prodrugs 24 and 39 showed any cytotoxicity”.

With `O=c1[nH]c(=O)n([C@H]2C[C@](F)(CO)CO2)cc1I` (relative stereo) [Compound 3b], the EC50 in data set [8] was 0.8 µM.

As for `Nc1ccn([C@H]2C[C@@](F)(CO)CO2)c(=O)n1` (relative stereo) [Compound 2c], in data set [8], the EC50 was 0.011 µM.

As to `CC(C)OC(=O)[C@H](C)NP(=O)(OC[C@@]1(F)CO[C@@H](n2cnc3c(N)ncnc32)[C@@H]1O)Oc1ccccc1` (stereo partly drawn) [Compound 24, Isopropyl ((((3S,4S,5R)-5-(6-amino-9H-purin-9-yl)-3-fluoro-4-hydroxytetrahydrofuran-3-yl)methoxy)(phenoxy)phosphoryl)-L-alaninate], the EC50 in data set [1] was > 33 µM; in data set [3], > 10 µM. The CC50 in data set [2] is > 33 µM. In data set [3], the “anti-HBV activity” value was “Neither 4 nor its prodrug 24 showed any anti-HBV activity”. The CC50 at 96 h in data set [4] (setting [9]) was > 10 µM. Moreover, the “cytotoxicity” value in data set [5] was “None of the tested apionucleosides 4 and 5 or apionucleoside prodrugs 24 and 39 showed any cytotoxicity”.

As for `C=C1[C@H](CO)[C@@H](O)C[C@@H]1n1cnc2c(=O)[nH]c(N)nc21` [Compound 1, entecavir, reference compound], the concentration giving a half-maximal response (EC50) in data set [1] was found to be 1.24 µM; in data set [3], 0.003 ± 0.0024 µM. Also, in data set [4], the CC50 at 96 h is > 100 µM.

Regarding `Nc1ncnc2c1ncn2[C@@H]1OC[C@](F)(CO)[C@H]1O` [Compound 4, (2R,3S,4R)-2-(6-Amino-9H-purin-9-yl)-4-fluoro-4-(hydroxymethyl)tetrahydrofuran-3-ol], in data set [1], the EC50 was > 33 µM. Moreover, the CC50 in data set [2] is > 33 µM. Besides, in data set [3], the concentration giving a half-maximal response (EC50) was > 100 µM and the “anti-HBV activity” value is “Neither 4 nor its prodrug 24 showed any anti-HBV activity”. In addition, the CC50 at 96 h in data set [4] is > 100 µM. In data set [5], the “cytotoxicity” value is “None of the tested apionucleosides 4 and 5 or apionucleoside prodrugs 24 and 39 showed any cytotoxicity”.
